Tests used:
HepG2 cells [1] = assay: Total lipid accumulation by Oil Red O staining; type: cell-based, Human; settings: 25 μM
Experimental: Total lipid accumulation was evaluated according to the method previously described by Liu et al.. […] Cloroquine (25 μM) and Isoproterenol (10 μM) were used as positive controls. Subsequently, after collecting the growth media to be used to perform glycerol level measurements (as detailed below), cells were rinsed twice with PBS and fixed in 4% paraformaldehyde in PBS for 30 min. Then, cells were stained with Oil Red O working solution for 1 h at room temperature and subsequently rinsed with water.
The Oil Red O stock solution was prepared by dissolving 0.35 g of Oil Red O (Sigma Aldrich, Milan, Italy) in 100 mL of isopropanol by gentle heating and then cooled and filtered through a 0.45 μm filter. The working solution was prepared by diluting three parts of the stock solution in two parts of MilliQ water (stock solution:MilliQ water; 3:2 v/v). The cell images were captured with a Leitz Fluovert FU (Leica Microsystems, Wetzlar, Germany) microscope. Lipids appeared red. For quantitative analysis of cellular lipids, 1 mL isopropanol was added to each well of the stained culture plate. The extracted dye was immediately removed by gentle pipetting and its absorbance was measured at 510 nm.

HepG2 cells [2] = assay: Cell viability MTT assay; type: cell-based; settings: 1-10 μM, 24 h
Experimental: HepG2 cells were seeded in a 96-well plate (Corning, USA) at a density of 1.0×10^4 cells/well with DMEM (200 μl/well), and then incubated for 24 h according to routine procedure. After being treated with test compounds (1-10 μM) and incubated for 24 h (8 wells for each sample), 20 μL/well MTT (5 g/L) was added to each well. The medium was then removed after 4 h incubation and 100 μL/well sodium dodecyl sulfate (SDS)-HCl solution was added to dissolve the reduced formazan product after incubation for 16 h at 37° C. Finally, the plate was read at 570 nm, using a micro-plate reader (Bio-Rad 680, USA).

AMPK = assay: Western blot of phosphorylated AMPK in HepG2 cells; type: cell-based, Human; settings: twenty-four hours of treatment, dose dependent
Experimental: (§1) Human hepatocellular carcinoma cells (HepG2), obtained from American Type Culture Collection (Manassas, Va., USA), were cultured in low-glucose (LG) Dulbecco's modified Eagle's medium (DMEM) ([…], Invitrogen, Carlsbad, Calif., USA) or high-glucose (HG) DMEM ([…]) supplemented with 10% fetal bovine serum (FBS) and […] penicillin/streptomycin in an atmosphere of 5% CO2 at 37° C. These cells were then treated with tested compounds at various concentrations for 24 h. After treatments, cells were lysed in a buffer containing 20 mM Tris-HCl (pH 7.5), 0.9% NaCl, 0.2% Triton X-100, and 1% of the protease inhibitor cocktail (Sigma-Aldrich, Milan, Italy) and then stored at −80° C. for further western blot analysis. All the analyses were conducted on cells between the third and the sixth passage.
(§2) Proteins (20-30 μg) were separated on CriterionTGX™ gel (4-20%) and transferred on Immuno-PVDF membrane (Biorad, Milan, Italy) for 1 h. Blots were incubated with the primary antibody at 4° C. overnight. All the polyclonal antibodies for the protein of interest were purchased from Santa Cruz Biotechnology, Inc., Dallas, TX, USA. Then, blots were washed 3 times for 10 minutes with 1×TBS, 0.1% Tween® 20 and incubated for 1 h with secondary antibody (peroxidase-coupled anti rabbit in 1×TBS, 0.1% Tween®20). […] Band densitometric analysis was performed using Image Lab Software (Biorad, Milan, Italy).
(§3) The liver is a major organ responsible for most functions of cellular metabolism and a mediator between dietary and endogenous sources of energy for extrahepatic tissues. In this context, AMPK constitutes an intrahepatic energy sensor regulating physiological energy dynamics by limiting anabolism and stimulating catabolism, thus increasing ATP availability. Once activated, AMPK phosphorylates its downstream substrates to reduce ATP-consuming anabolic pathways, including cholesterol, fatty acid, and triacylglycerol synthesis, and increases ATP-generating catabolic pathways, including fatty acid oxidation and lipolysis. […]

ACC = assay: Western blot of phosphorylated ACC in HepG2 cells; type: cell-based, Human; settings: twenty-four hours of treatment
Experimental: as §1, §2, §3

pancreatic acinar cells = assay: Pancreatic acinar cell proliferation (BrdU labeling index); type: in vivo, rats; settings: one week; T3 4 mg/kg diet; GC1 50 μg/kg gavage once daily; TG68 and IS25 50 μg/kg in drinking water
Experimental: FIG. 9. […] BrdU (1 mg/ml) in drinking water was given all throughout the experimental time. […] LI was expressed as number of BrdU-positive acinar cell nuclei/100 nuclei. At least 2000 acinar cells per pancreas were scored. Results are expressed as means±SE of 3 to 5 rats per group. (one way ANOVA). ***Statistically significant from control; P<0.001.
BrdU (1 mg/ml) in drinking water was given all throughout the experimental time. […] LI was expressed as number of BrdU-positive acinar cell nuclei/100 nuclei. At least 2000 acinar cells per pancreas were scored.

[3] = known property of the reference; cited from earlier work

SMILES: CCN(CC)CCCC(C)Nc1ccnc2cc(Cl)ccc12 (stereo not drawn) [Cloroquine]
- red lipid droplets (Oil Red O), steatosis-inducing positive control (HepG2 cells [1]): high amount of red lipid droplets

SMILES: N[C@@H](Cc1cc(I)c(Oc2ccc(O)c(I)c2)c(I)c1)C(=O)O [Compound T3, 3,5,3′-triiodothyronine, reference compound]
- cell viability (cell death with respect to control) (HepG2 cells [2]): did not significantly (p<0.05) cause cell death
- expression of p-AMPK (AMPK): significantly (p<0.05) increased
- ACC phosphorylation (p-ACC) (ACC): significant ACC phosphorylation

SMILES: Cc1cc(OCC(=O)O)cc(C)c1Cc1ccc(O)c(C(C)C)c1 [GC-1, Sobetirome, reference compound]
- pancreatic acinar cell proliferation (BrdU-positive acinar cells) (pancreatic acinar cells): Several BrdU-positive acinar cells were observed
- solubility in water [3]: insoluble compound in water
